Usually IC50 stands for the concentration that inhibits the measured activity by half. One may read the EC50 as the concentration needed to bring the measured effect to its halfway point. As a reminder, the AC50 is the midpoint of the concentration-response curve, whichever way the signal moves.

Molecules are shown by their SMILES. The source made the active and inactive calls. Where only a bound is given, the exact number is not on record here.

A short description of experiment [1]: Counterscreen for AddAB inhibitors: absorbance-based bacterial cell-based high throughput dose response assay for inhibitors of bacterial viability. [Related pubchem assays (depositor defined):AID435030, AID449728, AID449731, AID488942, AID488955, AID488956]. Format: functional. (In general: The purpose of a counterscreen is to sort out artefacts and off-target activity.)

Experiment [2] can be described thus: Trypanosoma cruzi growth suppression in host cells – NIH3T3 host cells, beta-gal luminescence, confirmation (AID 2044).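 Also: intracellular parasites grown in NIH/3T3 mouse fibroblasts as host cells; luminescent beta-galactosidase reporter signal from transgenic T. cruzi replicating inside host cells; inhibitors lower the luminescence signal.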 Format: functional, cell-based.
The nature of experiment [3]: NIH3T3 cell viability loss – ATP luminescence, mouse fibroblasts, counter-screen, dose response (AID 2010).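 Also: cells exposed to compound for about 90 hours before reading.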 Format: functional, cell-based.
In another experiment the target is T1, Exodeoxyribonuclease V (Escherichia coli (strain K12), UniProt P04993+P07648+P08394).
T1 sequence (P04993 whole entry): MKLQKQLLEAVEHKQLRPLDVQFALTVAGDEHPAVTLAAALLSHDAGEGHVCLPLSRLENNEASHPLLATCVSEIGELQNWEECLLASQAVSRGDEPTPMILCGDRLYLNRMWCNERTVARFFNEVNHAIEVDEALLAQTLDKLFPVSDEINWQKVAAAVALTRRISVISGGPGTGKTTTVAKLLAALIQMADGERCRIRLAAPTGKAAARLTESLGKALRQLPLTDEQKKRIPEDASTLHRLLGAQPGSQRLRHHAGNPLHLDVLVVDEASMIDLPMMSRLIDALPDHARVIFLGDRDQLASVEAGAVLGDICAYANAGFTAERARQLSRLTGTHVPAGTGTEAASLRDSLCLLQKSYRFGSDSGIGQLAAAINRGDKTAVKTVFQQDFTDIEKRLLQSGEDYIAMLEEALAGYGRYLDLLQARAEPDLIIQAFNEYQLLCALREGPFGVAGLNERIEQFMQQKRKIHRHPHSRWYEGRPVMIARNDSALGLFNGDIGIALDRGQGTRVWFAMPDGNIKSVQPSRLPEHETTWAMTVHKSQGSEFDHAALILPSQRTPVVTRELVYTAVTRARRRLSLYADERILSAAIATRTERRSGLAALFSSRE
T1 sequence (P07648 whole entry): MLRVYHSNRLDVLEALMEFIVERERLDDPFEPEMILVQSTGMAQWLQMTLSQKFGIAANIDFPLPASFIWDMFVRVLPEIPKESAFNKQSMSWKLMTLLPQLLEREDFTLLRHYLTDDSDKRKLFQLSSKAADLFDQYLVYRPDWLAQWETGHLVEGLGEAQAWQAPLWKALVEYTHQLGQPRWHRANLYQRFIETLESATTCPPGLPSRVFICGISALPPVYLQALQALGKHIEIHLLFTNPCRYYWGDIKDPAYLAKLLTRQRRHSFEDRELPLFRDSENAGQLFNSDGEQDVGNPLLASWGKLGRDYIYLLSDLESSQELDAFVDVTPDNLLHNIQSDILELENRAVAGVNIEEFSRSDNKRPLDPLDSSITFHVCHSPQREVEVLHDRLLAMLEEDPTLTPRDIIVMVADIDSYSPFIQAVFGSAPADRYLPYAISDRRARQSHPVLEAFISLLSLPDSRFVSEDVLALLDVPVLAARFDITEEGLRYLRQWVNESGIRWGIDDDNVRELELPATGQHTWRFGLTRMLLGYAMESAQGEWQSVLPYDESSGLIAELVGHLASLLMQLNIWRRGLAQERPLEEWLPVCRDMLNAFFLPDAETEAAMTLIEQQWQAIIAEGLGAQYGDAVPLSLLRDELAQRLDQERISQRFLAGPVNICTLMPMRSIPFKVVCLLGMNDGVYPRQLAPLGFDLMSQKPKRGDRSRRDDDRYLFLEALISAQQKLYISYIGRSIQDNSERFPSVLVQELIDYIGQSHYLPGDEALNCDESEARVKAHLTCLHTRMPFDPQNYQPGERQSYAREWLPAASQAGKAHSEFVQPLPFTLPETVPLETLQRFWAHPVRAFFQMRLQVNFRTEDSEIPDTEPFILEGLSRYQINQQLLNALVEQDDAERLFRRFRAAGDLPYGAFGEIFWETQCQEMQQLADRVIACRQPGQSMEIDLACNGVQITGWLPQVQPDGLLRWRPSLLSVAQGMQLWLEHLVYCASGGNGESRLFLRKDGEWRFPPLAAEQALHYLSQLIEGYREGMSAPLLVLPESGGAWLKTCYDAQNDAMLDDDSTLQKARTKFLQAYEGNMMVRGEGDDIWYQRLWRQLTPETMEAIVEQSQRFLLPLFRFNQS
T1 sequence (P08394 whole entry): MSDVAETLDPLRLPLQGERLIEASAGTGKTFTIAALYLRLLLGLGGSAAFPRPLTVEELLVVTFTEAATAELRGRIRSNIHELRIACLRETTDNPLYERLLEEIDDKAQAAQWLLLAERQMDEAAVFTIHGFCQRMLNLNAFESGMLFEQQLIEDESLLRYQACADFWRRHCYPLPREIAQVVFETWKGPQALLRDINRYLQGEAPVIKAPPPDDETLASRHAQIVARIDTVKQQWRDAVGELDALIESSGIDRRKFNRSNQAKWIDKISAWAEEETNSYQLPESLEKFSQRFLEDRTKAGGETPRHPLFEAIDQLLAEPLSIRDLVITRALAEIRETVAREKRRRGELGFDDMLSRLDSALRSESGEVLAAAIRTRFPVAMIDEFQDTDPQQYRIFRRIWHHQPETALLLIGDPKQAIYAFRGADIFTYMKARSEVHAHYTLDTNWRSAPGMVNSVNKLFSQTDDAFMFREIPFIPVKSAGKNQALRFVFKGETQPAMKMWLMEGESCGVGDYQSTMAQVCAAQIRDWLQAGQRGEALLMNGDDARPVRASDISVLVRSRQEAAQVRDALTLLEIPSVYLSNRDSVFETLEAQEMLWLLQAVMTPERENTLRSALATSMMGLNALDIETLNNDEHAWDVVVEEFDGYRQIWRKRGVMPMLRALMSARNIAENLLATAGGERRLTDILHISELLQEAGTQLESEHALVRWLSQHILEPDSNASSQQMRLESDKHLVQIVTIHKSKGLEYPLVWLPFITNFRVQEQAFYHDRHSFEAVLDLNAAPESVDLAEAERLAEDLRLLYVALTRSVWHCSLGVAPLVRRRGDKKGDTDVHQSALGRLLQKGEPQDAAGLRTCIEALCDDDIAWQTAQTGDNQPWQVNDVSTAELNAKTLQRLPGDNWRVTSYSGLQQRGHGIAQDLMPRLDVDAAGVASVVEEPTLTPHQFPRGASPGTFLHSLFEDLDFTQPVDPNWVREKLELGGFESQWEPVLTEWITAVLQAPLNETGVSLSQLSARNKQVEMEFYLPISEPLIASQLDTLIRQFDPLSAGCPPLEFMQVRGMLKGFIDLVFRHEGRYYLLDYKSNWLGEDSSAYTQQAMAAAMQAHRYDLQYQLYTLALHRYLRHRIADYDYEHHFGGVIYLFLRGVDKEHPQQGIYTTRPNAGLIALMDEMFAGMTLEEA
The experiment can be described thus: RecBCD inhibition via phage-restricted bacterial growth – absorbance, V66 E. coli, mutant T4 phage, counter-screen for AddAB inhibitor project, dose response (AID 492957). Format: functional, cell-based, Escherichia coli str. K-12 substr. MG1655.

Experiment [4] can be described thus: fluconazole-exposed Candida albicans growth modulators – fluorescence, retest, confirmation (AID 2467). Format: functional, cell-based.
Experiment [5] in a line: NIH-3T3 fibroblast cytotoxicity, dose response, cytotoxicity control, cell-based, fluorescence, Alamar Blue, secondary assay (AID 2327).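 Also: NIH-3T3 mouse fibroblasts cultured with fluconazole at 8 µg/mL.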 Format: functional.
Experiment [6] concerns the target T2, E3 ubiquitin-protein ligase XIAP (Homo sapiens, UniProt P98170). Description: Counter Screen using XIAP-Bir3 for Chemical Antagonists of Bir1/2 domains of IAP-family anti-apoptotic proteins. [Related pubchem assays (depositor defined):AID1018, AID1449, AID1514, AID1638, AID1749, AID1750, AID488957, AID488963].
The target of experiment [7] is T2, E3 ubiquitin-protein ligase XIAP. Description: small molecules displacing peptide from XIAP – biochemical, IAP family, fluorescence polarization (AID 1018). Format: functional.
Experiment [8] has as its target Glyceraldehyde-3-phosphate dehydrogenase (Homo sapiens, UniProt P04406).
Experiment [9] concerns the target T3, Alkaline phosphatase, tissue-nonspecific isozyme (Homo sapiens, UniProt P05186).
T3 sequence (P05186 whole entry): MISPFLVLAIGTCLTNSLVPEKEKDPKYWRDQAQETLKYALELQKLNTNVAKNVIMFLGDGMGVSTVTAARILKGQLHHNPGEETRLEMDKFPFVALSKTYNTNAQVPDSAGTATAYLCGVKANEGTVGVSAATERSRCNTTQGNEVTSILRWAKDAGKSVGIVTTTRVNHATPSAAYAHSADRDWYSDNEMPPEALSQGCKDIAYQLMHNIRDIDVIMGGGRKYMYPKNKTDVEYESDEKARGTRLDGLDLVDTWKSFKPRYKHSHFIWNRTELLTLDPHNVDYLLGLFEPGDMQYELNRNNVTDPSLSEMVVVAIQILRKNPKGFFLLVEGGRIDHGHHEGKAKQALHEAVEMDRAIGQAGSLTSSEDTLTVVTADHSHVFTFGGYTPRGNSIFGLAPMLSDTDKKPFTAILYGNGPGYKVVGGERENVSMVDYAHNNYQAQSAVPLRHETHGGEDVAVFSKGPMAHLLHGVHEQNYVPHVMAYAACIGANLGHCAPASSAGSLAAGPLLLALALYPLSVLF
Description: potency against alkaline phosphatase TNAP – biochemical, luminescent, dose response, SAR follow-up (AID 1056).

The target in experiment [10] is Intestinal-type alkaline phosphatase (Mus musculus, UniProt P24822). Description: PubChem AID 488785. Format: functional.
Sequence of Intestinal-type alkaline phosphatase (Mus musculus, UniProt P24822) (P24822 whole entry): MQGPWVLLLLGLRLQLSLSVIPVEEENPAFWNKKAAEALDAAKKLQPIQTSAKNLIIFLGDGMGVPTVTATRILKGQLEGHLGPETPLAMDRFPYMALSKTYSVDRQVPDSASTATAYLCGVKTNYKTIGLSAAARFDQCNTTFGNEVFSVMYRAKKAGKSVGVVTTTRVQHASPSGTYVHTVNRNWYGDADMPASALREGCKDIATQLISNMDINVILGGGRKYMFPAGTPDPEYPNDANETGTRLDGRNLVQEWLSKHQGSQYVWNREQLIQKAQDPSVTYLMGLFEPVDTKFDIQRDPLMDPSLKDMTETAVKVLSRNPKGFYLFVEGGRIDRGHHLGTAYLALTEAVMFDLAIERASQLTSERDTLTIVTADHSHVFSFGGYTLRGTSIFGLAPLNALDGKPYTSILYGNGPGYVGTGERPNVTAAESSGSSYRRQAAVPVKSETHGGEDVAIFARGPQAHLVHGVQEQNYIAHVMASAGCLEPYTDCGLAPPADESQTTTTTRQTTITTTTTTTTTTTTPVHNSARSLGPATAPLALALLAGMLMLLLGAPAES
Experiment [11] has as its target T3, Alkaline phosphatase, tissue-nonspecific isozyme. The experiment can be described thus: TNAP enzyme inhibition by screening hits, dose response, selectivity assay for mouse IAP inhibitor project, biochemical, human TNAP, uHTS hits (AID 488906). Format: functional.
Experiment [12] concerns the target Intestinal-type alkaline phosphatase (Homo sapiens, UniProt P09923). The experiment can be described thus: inhibition of human intestinal alkaline phosphatase – biochemical, dose response (AID 488876). Format: functional.
In another experiment the test system is INS1. Description: INS-1E survival protection against cytokine death – cell-based, luminescence, retest, dose response (AID 449756).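 Also: cell death triggered by IL-1 beta plus TNF-alpha plus IFN-gamma mixture; protective hits raise ATP signal compared with cytokine alone wells.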 Format: functional. The conditions noted are these: Rattus norvegicus.
For experiment [13], the target named is Heat shock protein HSP 90-alpha (Homo sapiens, UniProt P07900). Format: functional, organism-based.
A short description of experiment [14]: cells. Format: functional, cell-based.
A short description of experiment [15]: HGIII-sPLA2 enzyme inhibition potency – biochemical, QFRET, IC50, dose response (AID 743457).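 Also: green fluorescence rise as the enzyme cleaves BODIPY PC-A2 in liposomes.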
A short description of experiment [16]: cells. Format: functional, cell-based. This is another data set of the same source.
Experiment [17] in a line: Luminescence Cell-Based Dose Response HTS to Identify Inhibitors of 5'UTR Stem-Loop Driven Prion Protein mRNA Translation in H4 Neuroglioblastoma Cells. [Related pubchem assays: 1827 (Project Summary), 1813 (Primary HTS)]. Format: functional.
Experiment [18] in a line: alpha-synuclein stem-loop luciferase translation blockers – H4 neuroglioma cells, luminescence, confirmation (AID 1988). Format: functional, cell-based.
The nature of experiment [19]: luciferase reporter signal suppression in cells – H4 neuroglioma cells, luminescence, dose response (AID 1990). Format: functional, cell-based. On the technique in general: In a reporter assay the amount or activity of a reporter protein is the signal.

Sequence of Intestinal-type alkaline phosphatase (Homo sapiens, UniProt P09923) (P09923 whole entry): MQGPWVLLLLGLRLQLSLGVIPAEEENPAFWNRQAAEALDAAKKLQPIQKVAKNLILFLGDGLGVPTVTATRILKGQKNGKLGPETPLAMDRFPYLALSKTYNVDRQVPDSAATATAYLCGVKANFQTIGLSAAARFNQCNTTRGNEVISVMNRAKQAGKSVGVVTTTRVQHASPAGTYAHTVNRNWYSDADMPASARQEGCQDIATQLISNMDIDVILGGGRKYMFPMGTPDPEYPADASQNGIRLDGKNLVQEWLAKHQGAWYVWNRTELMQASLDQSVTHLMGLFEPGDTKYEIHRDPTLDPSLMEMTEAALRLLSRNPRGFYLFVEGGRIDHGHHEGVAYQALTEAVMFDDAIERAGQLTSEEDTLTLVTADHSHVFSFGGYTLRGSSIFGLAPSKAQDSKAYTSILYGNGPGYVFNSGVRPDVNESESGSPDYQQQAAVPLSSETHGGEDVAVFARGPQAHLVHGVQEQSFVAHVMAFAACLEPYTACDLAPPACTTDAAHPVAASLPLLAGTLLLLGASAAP
T2 sequence (P98170 whole entry): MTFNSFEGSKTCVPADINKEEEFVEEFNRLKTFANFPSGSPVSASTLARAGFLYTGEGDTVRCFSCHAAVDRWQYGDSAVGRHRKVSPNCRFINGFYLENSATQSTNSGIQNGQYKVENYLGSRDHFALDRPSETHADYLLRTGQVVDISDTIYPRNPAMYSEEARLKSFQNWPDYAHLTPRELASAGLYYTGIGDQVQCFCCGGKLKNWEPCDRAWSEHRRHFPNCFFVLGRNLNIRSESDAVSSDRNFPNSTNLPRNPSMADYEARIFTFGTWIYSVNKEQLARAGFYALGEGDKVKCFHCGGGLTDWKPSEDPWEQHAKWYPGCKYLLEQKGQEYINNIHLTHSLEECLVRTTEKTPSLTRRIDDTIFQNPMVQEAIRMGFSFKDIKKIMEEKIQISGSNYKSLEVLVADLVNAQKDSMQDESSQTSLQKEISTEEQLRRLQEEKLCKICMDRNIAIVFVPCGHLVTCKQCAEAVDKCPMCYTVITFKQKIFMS
Sequence of Glyceraldehyde-3-phosphate dehydrogenase (P04406 whole entry): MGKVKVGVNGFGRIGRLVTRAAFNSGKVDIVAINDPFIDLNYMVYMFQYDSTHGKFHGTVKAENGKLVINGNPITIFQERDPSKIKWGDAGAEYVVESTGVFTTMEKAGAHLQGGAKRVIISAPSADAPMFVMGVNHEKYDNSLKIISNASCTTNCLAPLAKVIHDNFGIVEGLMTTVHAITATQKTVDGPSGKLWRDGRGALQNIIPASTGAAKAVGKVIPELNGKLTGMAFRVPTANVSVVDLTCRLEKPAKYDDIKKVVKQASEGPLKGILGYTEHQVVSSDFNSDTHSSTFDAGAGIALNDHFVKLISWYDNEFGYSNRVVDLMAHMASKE

Consider `C=CCc1cccc(/C=N/NC(=O)CNc2ccccc2OC)c1O`, for which the IC50 (in [1]; at Exodeoxyribonuclease V) was > 119 µM (inactive) in each case. Further, the EC50 is 2.01 µM (active) in experiment [2], 7.37 µM (active) in [3], > 38 µM (not active) in experiment [4] and > 160 µM (inactive) in experiment [5].
`CC(C)C(c1nnnn1C(C)(C)C)N1CCC(Cc2ccccc2)CC1` (stereo not drawn): the IC50 in [6] was > 100 µM (inactive); in [7] it was > 100 µM (not active).
With `COc1ccccc1Oc1ccc(S(=O)(=O)Nc2cccnc2)cc1`, the IC50 in [8] is > 100 µM (not active); in [9], > 100 µM (inactive).
On to `Cc1ccc(CN2C3CCCC2CC(NC(=O)Nc2cccc(F)c2)C3)cc1` (stereo not drawn), for which the IC50 in experiment [10] is 9.9 µM (active); in experiment [11], 63.3 µM (active); in experiment [12] it was > 100 µM (inactive).
Take `CCCCC(=O)NC(c1cccs1)c1cc(Cl)c2cccnc2c1O` (stereo not drawn): the IC50 in experiment [1] is > 119 µM (inactive); at Exodeoxyribonuclease V, > 119 µM (inactive); in experiment [15], > 122 µM (inactive). The half-maximal activity concentration (AC50) in the experiment with INS1 is 1.19 µM (active); in [13], 3.6 µM (active). Besides, the EC50 was > 350 µM (not active) in the experiment “cells [14]” and 57.5 µM (active) in “cells [16]”.
`O=C(Nc1cccc(-c2cccc(Cl)c2)c1)C1CCN(C2CCC2)CC1`: the IC50 in experiment [10] was 9.39 µM (active); in experiment [11], 11.8 µM (active); in experiment [12] it was 8.64 µM (active).
Consider `CCN(CC)S(=O)(=O)c1cccc(C(=O)c2c(C)cc3ccccn23)c1`, for which the IC50 in experiment [6] is > 100 µM (inactive); in experiment [7], > 100 µM (not active).
Regarding `O=C(NCCCCc1ccccc1)NC[C@@H]1CC[C@@H](Cc2ccc(-c3ccccc3)cc2)O1`, the values for the IC50 in experiment [10], in experiment [11] and in [12] were 2.6 µM (active), 15.6 µM (active) and 2.1 µM (active), respectively.
On to `O=C(c1cc(-n2cnnc2)ccc1Cl)N1CCN(c2nc(-c3ccccc3)cs2)CC1`, for which the results for the EC50 in experiment [17], in experiment [18] and in [19] were 15.1 µM (active), > 120 µM (not active) and > 30 µM (not active), respectively. The values for the IC50 in [6] and in [7] were > 100 µM (inactive) and > 100 µM (not active), respectively.
